B1: BDNF: recombinant BDNF protein added in the culture medium (protein, UniProt P23560 19-247, looked up)
Neurotrophic factor BDNF …: APMKEANIRGQGGLAYPGVRTHGTLESVNGPKAGSRGLTSLADTFEHVIEELLDEDQKVRPNEENNKDADLYTSRVMLSSQVPLEPPLLFLLEEYKNYLDAANMSMRVRRHSDPARRGELSVCDSISEWVTAADKKTAVDMSGGTVTVLEKVPVSKGQLKQYFYETKCNPMGYTKEGCRGIDKRHWNSQCRTTQSYVRALTMDSKKRIGWRFIRIDTSCVCTLTIKRGR

Legend:
Format in all cases: cell-based, mouse
[1] = tested on: Htt-72Q-expressing primary cortical neurons; test: Neurofilament (NF) immunofluorescence, neurite degeneration in cortical neurons; conditions: fixed at DIV 14; vs. Htt-72Q (0 μM)
Protocol: (§1) Mouse primary cortical and striatal neurons from embryonic day (E) 15.5 Swiss Webster mouse fetuses (Taconic) were first plated in the minimal essential medium (MEM) containing 10% FBS, 0.45% glucose, 1 mM sodium pyruvate, 2 mM glutamine, 20 U/ml penicillin and 20 μg/ml streptomycin, for 3 h and then maintained in serum-free Neurobasal medium (Life Technologies) containing NeuroCult™ SM1 neuronal supplement ([…] Technologies), 0.5 mM glutamine and 25 μM glutamate for the first 3 d in a humidified incubator (37° C. in 5% CO2). Half of the medium was replaced with Neurobasal medium with SM1 and 0.5 mM glutamine every 3 days. Primary cortical neurons plated on 96-well flat clear bottom black plates (Corning #3904) at 4×10^4 cells/well were infected with Htt exon1 expression lentivirus (Htt-25Q or Htt-72Q) or control empty vector lentivirus at 5 days in vitro (DIV 5). Primary striatal neurons plated on 96-well plates at 1×10^5 cells/well were infected with Htt exon1 expression lentivirus at DIV 4. Viral copy number was adjusted for transduction of neurons on the basis of titer measured using the Lenti-X qRT-PCR titration kit (Clontech), and equal numbers of viral particles of Htt-25Q and Htt-72Q expressing lentiviruses were used for transduction. […]
(§2) For the measurement of neurofilament (NF) immunofluorescence intensity, cortical and striatal neurons cultured in a 96-well plate were fixed in 4% paraformaldehyde (PFA) in PBS for 20 min nine and seven days after Htt lentiviral infection, respectively, permeabilized with 0.1% Triton X-100 in PBS for 15 min at room temperature, and subjected to indirect immunofluorescence with anti-NF (2H3) primary antibody and Alexa Fluor 568-conjugated goat anti-mouse IgG secondary antibody (Life Technologies). […] Following image background subtraction, the NF immunofluorescence intensity was quantified using an ImageJ-based macro. Image capture and quantification of Htt (EM48) immunofluorescence intensity were performed as described for those of NF. […] About 300 nuclei from three random fields in a well were counted. […]

[2] = tested on: Htt-72Q-expressing primary striatal neurons; test: Neurofilament (NF) immunofluorescence, neurite degeneration in striatal neurons; conditions: DIV 4 striatal neurons transduced, fixed seven days later; vs. Htt-72Q (0 μM)
Protocol: as §1, §2

[3] = tested on: Htt-72Q-expressing primary cortical neurons; test: MTS cell viability assay in Htt-expressing primary cortical neurons; conditions: for viability of Htt-72Q-expressing neurons (MTS assay): MTS at DIV 14; for viability of mutant Htt-expressing neurons (MTS assay), validation of screen hits: 0.02, 0.2, 2 μM vs Htt-72Q (0 μM)
Protocol: Mouse primary cortical and striatal neurons from embryonic day (E) 15.5 Swiss Webster mouse fetuses (Taconic) were first plated in the minimal essential medium (MEM) containing 10% FBS, 0.45% glucose, 1 mM sodium pyruvate, 2 mM glutamine, 20 U/ml penicillin and 20 μg/ml streptomycin, for 3 h and then maintained in serum-free Neurobasal medium (Life Technologies) containing NeuroCult™ SM1 neuronal supplement ([…] Technologies), 0.5 mM glutamine and 25 μM glutamate for the first 3 d in a humidified incubator (37° C. in 5% CO2). Half of the medium was replaced with Neurobasal medium with SM1 and 0.5 mM glutamine every 3 days. Primary cortical neurons plated on 96-well flat clear bottom black plates (Corning #3904) at 4×10^4 cells/well were infected with Htt exon1 expression lentivirus (Htt-25Q or Htt-72Q) or control empty vector lentivirus at 5 days in vitro (DIV 5). Primary striatal neurons plated on 96-well plates at 1×10^5 cells/well were infected with Htt exon1 expression lentivirus at DIV 4. Viral copy number was adjusted for transduction of neurons on the basis of titer measured using the Lenti-X qRT-PCR titration kit (Clontech), and equal numbers of viral particles of Htt-25Q and Htt-72Q expressing lentiviruses were used for transduction. For the experiments to test effects of DNMT inhibitors, neurons were treated with inhibitors six hours after Htt lentiviral infection. One half of the media was changed every 3 days with media containing new drug. In knockdown experiments in Htt-expressing neurons, primary cortical neurons were cotransduced with Htt-expressing lentivirus and Dnmt shRNA or control shRNA lentivirus at DIV 5. pLKO.1-TRC1-luciferase (Luci) and pLKO.1-TRC2-LacZ were used as control for RNAi with pLKO.1-TRC1-Dnmt3a and pLKO.1-TRC2-Dnmt1, respectively. Lentiviral particles were prepared by transfecting 293LE cells with the lentiviral plasmid of interest along with packaging plasmid psPAX2 and envelope plasmid pCMV-SVG as described previously^86. Four days after transfection, viruses in the conditioned media were collected and purified using Lenti-X Concentrator (Clontech). Primary cortical neurons from BACHD mouse embryos (E15.5) were individually plated into separate wells and treated at DIV 4 with decitabine or vehicle for 3.5 days.

[4] = tested on: Htt-72Q-expressing primary cortical neurons; test: Epigenetic drug library screen, resazurin (Alamar Blue) assay; conditions: 0.02, 0.2, 2 μM added at DIV 6, resazurin at DIV 14; hits validated by MTS
Protocol: As epigenetic gene regulation is a cell-type specific mechanism, we used a physiologically relevant, post-mitotic cortical neuron culture system for this screen. In this system, lentivirus-mediated expression of the exon 1-encoded N-terminal fragment of mutant Htt (Htt-72Q with a 72 glutamine repeat), but not wild-type (WT) Htt (Htt-25Q), induces neurotoxicity^38. […] In the drug screen, the viability of Htt-expressing cortical neurons was determined by the resazurin (Alamar Blue) assay, a quantitative measurement of mitochondrial metabolic activity, which correlates with cell viability.
Epigenetic drug screen was performed using a primary cortical neuron model of HD with a drug library composed of 84 compounds (Table 1), among which 80 drugs are purchased from Cayman Chemical (Epigenetic Screening Library Item No 11076) and four drugs, SGC0946, EPZ5676, EPZ6438, and GSK126, were obtained from Xcessbio Biosciences Inc. Mouse primary cortical neurons were plated on 96-well flat clear bottom black plates (Corning #3904). WT or mutant Htt exon1 fragment (Htt-25Q or Htt-72Q)-expressing lentiviruses are infected at DIV 5 as described above. The 84 compounds were added to the media at DIV 6 one day after Htt lentiviral infection with three different doses (0.02, 0.2, 2 μM) for each compound at triplicates. DMSO was used as control. Media containing compounds or DMSO were changed every three days to maintain the compounds' activity. At DIV 14, the viability of neurons was determined by resazurin (Alamar blue) assay, a quantitative measurement of mitochondrial metabolic activity. The screen was fully automated and performed in the High-Throughput Screening Center in Washington University School of Medicine. Any possible plate effects were determined using control plates treated with DMSO and used for normalization. Screen hits were validated by MTS assay.

Molecule | outcome in epigenetic drug screen (84 compounds) [4] | viability of mutant Htt-expressing neurons (MTS assay), validation of screen hits [3] | also measured
Nc1ncn([C@@H]2O[C@H](CO)[C@@H](O)[C@H]2O)c(=O)n1 [5-azacytidine] | – | – | Htt-72Q-induced neurite degeneration (NF immunofluorescence intensity), cortical neurons [1]: no significant difference in NF immunofluorescence intensity; mutant Htt-induced neurite degeneration (NF immunofluorescence intensity), striatal neurons [2]: no significant difference in NF immunofluorescence intensity; viability of Htt-72Q-expressing neurons (MTS assay) ([3]; DIV 5 cortical neurons transduced with Htt lentivirus, treated with drug or DMSO (=0 μM), vs. Htt-72Q (0 μM)): no significant difference in survival
CNCc1ccc(-c2[nH]c3cc(F)cc4c3c2CCNC4=O)cc1 [AG-014699] | another screen hit | no significant difference in survival | –
CC(=O)Nc1ccc(NC(=S)NC(=O)c2ccc(C(C)(C)C)cc2)cc1 [Tenovin-1] | one of the top three positive compounds | did not significantly increase the viability of mutant Htt-expressing neurons | –
B1 | – | – | viability of Htt-72Q-expressing neurons (MTS assay) ([3]; cultured with recombinant BDNF 50 ng/ml, vs. Htt-72Q with vehicle): increased the viability of Htt-72Q-expressing neurons
